Data taken from the NIST ThermoML archive (doi:10.1021/acs.jced.6b00772).
Numbers after ± are expanded uncertainties.

Settings: Fluid (supercritical or subcritical phases), isochoric method

O=C(C(F)(F)C(F)(F)F)C(F)(C(F)(F)F)C(F)(F)F [dodecafluoro-2-methylpentan-3-one]
Settings | mass density [kg/m3]
333.47 K, 4628.4 kPa | 1526.2 ± 6.1
343.46 K, 3695.1 kPa | 1489 ± 6
353.46 K, 597.1 kPa | 1425.9 ± 5.7
353.46 K, 7818.2 kPa | 1488.3 ± 6
363.45 K, 4019 kPa | 1425.2 ± 5.7
373.46 K, 849.3 kPa | 1348 ± 5.9
373.46 K, 7450.4 kPa | 1424.5 ± 5.7
383.46 K, 3567.3 kPa | 1347.4 ± 5.4
393.47 K, 6308 kPa | 1346.8 ± 5.4
393.5 K, 1730.8 kPa | 1273.5 ± 5.1
403.46 K, 831.5 kPa | 107.8 ± 39
403.46 K, 9056.2 kPa | 1346.1 ± 5.4
403.48 K, 1044.1 kPa | 1195.8 ± 39
403.5 K, 3917.8 kPa | 1272.9 ± 5.1
413.46 K, 1666.3 kPa | 1157.5 ± 6.3
413.48 K, 873.1 kPa | 107.8 ± 11
413.48 K, 2784 kPa | 1195.2 ± 4.8
413.5 K, 6126.2 kPa | 1272.3 ± 5.1
423.47 K, 3219 kPa | 1156.9 ± 4.7
423.49 K, 913.6 kPa | 107.7 ± 5.4
423.49 K, 4554.9 kPa | 1194.6 ± 4.8
423.49 K, 8348.4 kPa | 1271.7 ± 5.1
433.46 K, 1423 kPa | 209.1 ± 7.5
433.47 K, 4799.8 kPa | 1156.4 ± 4.7
433.48 K, 2354.6 kPa | 1044.1 ± 4.3
433.49 K, 953.3 kPa | 107.7 ± 1.8
433.49 K, 1785.7 kPa | 980.1 ± 7.9
433.49 K, 6349 kPa | 1194.1 ± 4.8
443.47 K, 1703.9 kPa | 270.5 ± 5.5
443.48 K, 1517.2 kPa | 209 ± 3.3
443.48 K, 1862.8 kPa | 384.5 ± 7
443.48 K, 1909.2 kPa | 553.6 ± 11
443.48 K, 2368.4 kPa | 932 ± 4.1
443.48 K, 6401.8 kPa | 1155.8 ± 4.6
443.49 K, 991.3 kPa | 107.6 ± 1.6
443.49 K, 1905.5 kPa | 490.7 ± 5.6
443.49 K, 1950.5 kPa | 733.6 ± 23
443.5 K, 1925.1 kPa | 626.4 ± 43
443.5 K, 1983.4 kPa | 797.9 ± 9.4
443.5 K, 2050.5 kPa | 844.7 ± 6.5
443.5 K, 2089.1 kPa | 861.9 ± 5.6
443.5 K, 2696.6 kPa | 979.6 ± 4
443.5 K, 3478.7 kPa | 1043.6 ± 4.2
443.5 K, 8156.2 kPa | 1193.5 ± 4.8
453.48 K, 3187.2 kPa | 931.6 ± 3.9
453.49 K, 1028.2 kPa | 107.6 ± 1.5
453.49 K, 2074 kPa | 384.3 ± 5.6
453.49 K, 2237.3 kPa | 553.3 ± 8.8
453.49 K, 2415.6 kPa | 733.2 ± 6.5
453.49 K, 8016.6 kPa | 1155.3 ± 4.6
453.5 K, 1608.6 kPa | 208.9 ± 2.7
453.5 K, 1836 kPa | 270.4 ± 3.2
453.5 K, 2302.1 kPa | 626.1 ± 8.5
453.5 K, 2679.9 kPa | 844.3 ± 4
453.51 K, 3642.6 kPa | 979.1 ± 4
453.51 K, 4628.3 kPa | 1043.2 ± 4.2
453.52 K, 2543.8 kPa | 797.5 ± 4.8
453.52 K, 2753.3 kPa | 861.5 ± 5.8
453.52 K, 9972.1 kPa | 1192.9 ± 4.8
453.53 K, 2192.7 kPa | 490.4 ± 8.1
463.48 K, 1697.6 kPa | 208.8 ± 1.8
463.49 K, 1963.3 kPa | 270.2 ± 2.7
463.49 K, 5794.1 kPa | 1042.7 ± 4.2
463.5 K, 1065.3 kPa | 107.5 ± 1.4
463.5 K, 2277.3 kPa | 384.1 ± 3.9
463.5 K, 2561.8 kPa | 553 ± 5.7
463.5 K, 2685.7 kPa | 625.8 ± 4.9
463.5 K, 2908.5 kPa | 732.9 ± 4.4
463.5 K, 4032.8 kPa | 931.2 ± 3.8
463.5 K, 9636.7 kPa | 1154.7 ± 4.6
463.51 K, 2470.7 kPa | 490.2 ± 5.4
463.51 K, 3127.9 kPa | 797.1 ± 3.9
463.51 K, 3336.1 kPa | 843.9 ± 3.6
463.52 K, 3442 kPa | 861.1 ± 3.5
463.52 K, 4610 kPa | 978.7 ± 4
473.49 K, 2087.5 kPa | 270.1 ± 2.4
473.49 K, 3412 kPa | 732.5 ± 3.7
473.49 K, 4891.4 kPa | 930.7 ± 3.8
473.5 K, 1102 kPa | 107.5 ± 1.3
473.5 K, 1785 kPa | 208.7 ± 1.7
473.5 K, 2476.2 kPa | 383.9 ± 3.1
473.5 K, 2884.8 kPa | 552.8 ± 4.1
473.5 K, 3074.2 kPa | 625.5 ± 3.7
473.51 K, 2746.7 kPa | 490 ± 3.8
473.51 K, 5591.7 kPa | 978.2 ± 4
473.51 K, 6974.8 kPa | 1042.2 ± 4.2
473.52 K, 4008.9 kPa | 843.5 ± 3.6
473.52 K, 4147 kPa | 860.7 ± 3.6
473.53 K, 3727.6 kPa | 796.7 ± 3.6
483.48 K, 5762.4 kPa | 930.3 ± 3.8
483.49 K, 1870.9 kPa | 208.6 ± 1.5
483.49 K, 2209.8 kPa | 270 ± 2.1
483.49 K, 2672.1 kPa | 383.8 ± 2.7
483.5 K, 3464.6 kPa | 625.2 ± 3.2
483.5 K, 3924.7 kPa | 732.2 ± 3.4
483.5 K, 8161 kPa | 1041.7 ± 4.2
483.51 K, 1138.4 kPa | 107.4 ± 1.2
483.51 K, 3208.9 kPa | 552.5 ± 3.4
483.52 K, 3020.8 kPa | 489.7 ± 3.3
483.52 K, 4336.7 kPa | 796.4 ± 3.4
483.52 K, 4691.3 kPa | 843.1 ± 3.5
483.52 K, 4863.8 kPa | 860.3 ± 3.6
483.52 K, 6584 kPa | 977.8 ± 3.9
493.49 K, 1955 kPa | 208.5 ± 1.4
493.49 K, 2329.9 kPa | 269.9 ± 1.9
493.49 K, 2865 kPa | 383.6 ± 2.4
493.5 K, 3858.2 kPa | 624.9 ± 3
493.5 K, 4442.7 kPa | 731.8 ± 3.2
493.5 K, 6642.5 kPa | 929.8 ± 3.8
493.5 K, 9354.4 kPa | 1041.2 ± 4.2
493.51 K, 1174.7 kPa | 107.4 ± 1.2
493.51 K, 5382.6 kPa | 842.7 ± 3.5
493.52 K, 3532.9 kPa | 552.2 ± 2.9
493.52 K, 4954.4 kPa | 796 ± 3.4
493.52 K, 5589.2 kPa | 859.9 ± 3.5
493.53 K, 7585.3 kPa | 977.3 ± 3.9
493.54 K, 3292.9 kPa | 489.5 ± 2.8
503.49 K, 7526.9 kPa | 929.4 ± 3.8
503.5 K, 2038.9 kPa | 208.4 ± 1.3
503.5 K, 2448.7 kPa | 269.7 ± 1.8
503.51 K, 1210.7 kPa | 107.3 ± 1.1
503.51 K, 3055.8 kPa | 383.4 ± 2.2
503.51 K, 4251.2 kPa | 624.7 ± 2.8
503.52 K, 3562.4 kPa | 489.3 ± 2.6
503.52 K, 4964.5 kPa | 731.5 ± 3.1
503.53 K, 3855.8 kPa | 552 ± 2.7
503.53 K, 5577.4 kPa | 795.6 ± 3.3
503.53 K, 6079.9 kPa | 842.3 ± 3.5
503.53 K, 6319.5 kPa | 859.5 ± 3.5
503.53 K, 8592.1 kPa | 976.8 ± 3.9
513.49 K, 2121.4 kPa | 208.3 ± 1.3
513.49 K, 2565.8 kPa | 269.6 ± 1.7
513.5 K, 1245.5 kPa | 107.3 ± 1.1
513.5 K, 4646.1 kPa | 624.4 ± 2.7
513.5 K, 5488.2 kPa | 731.1 ± 3.1
513.5 K, 8416.4 kPa | 928.9 ± 3.8
513.51 K, 3244.9 kPa | 383.2 ± 2.1
513.52 K, 4177.8 kPa | 551.7 ± 2.6
513.52 K, 6780.4 kPa | 841.9 ± 3.4
513.52 K, 7055 kPa | 859.1 ± 3.5
513.53 K, 3830.9 kPa | 489 ± 2.5
513.53 K, 9599.7 kPa | 976.4 ± 3.9
513.54 K, 6204.5 kPa | 795.2 ± 3.3
523.49 K, 2682.3 kPa | 269.5 ± 1.6
523.49 K, 5040.8 kPa | 624.1 ± 2.7
523.49 K, 9308.2 kPa | 928.5 ± 3.7
523.5 K, 1281.4 kPa | 107.2 ± 1
523.5 K, 2203.4 kPa | 208.2 ± 1.2
523.5 K, 3433 kPa | 383 ± 2
523.52 K, 4099.2 kPa | 488.8 ± 2.3
523.52 K, 6015.2 kPa | 730.8 ± 3
523.53 K, 6832.9 kPa | 794.9 ± 3.3
523.53 K, 7485.5 kPa | 841.5 ± 3.4
523.54 K, 4499.9 kPa | 551.5 ± 2.5
523.54 K, 7793.7 kPa | 858.7 ± 3.5
